Assay results reported in BindingDB's records for patent US20250313563 (The Broad Institute, 2025).
pIC50: −log10 of the molar value. “And” between values parts separate entries of the source, which are not always exact repeats. Equal values may be shown once.

How the values were obtained:
[1] = molecular target: Glycogen synthase kinase-3 alpha (Homo sapiens, UniProt P49840); assay: TR-FRET Assay
Summary of the method: (§1)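 Enzyme and test compound were first incubated together for 30 minutes in assay buffer. The kinase reaction followed and was stopped with EDTA. The pSer641 signal was read by time-resolved FRET.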

[2] = molecular target: Glycogen synthase kinase-3 beta (Homo sapiens, UniProt P49841); assay: TR-FRET Assay
Summary of the method: as §1

Sequence of Glycogen synthase kinase-3 alpha (P49840 whole entry): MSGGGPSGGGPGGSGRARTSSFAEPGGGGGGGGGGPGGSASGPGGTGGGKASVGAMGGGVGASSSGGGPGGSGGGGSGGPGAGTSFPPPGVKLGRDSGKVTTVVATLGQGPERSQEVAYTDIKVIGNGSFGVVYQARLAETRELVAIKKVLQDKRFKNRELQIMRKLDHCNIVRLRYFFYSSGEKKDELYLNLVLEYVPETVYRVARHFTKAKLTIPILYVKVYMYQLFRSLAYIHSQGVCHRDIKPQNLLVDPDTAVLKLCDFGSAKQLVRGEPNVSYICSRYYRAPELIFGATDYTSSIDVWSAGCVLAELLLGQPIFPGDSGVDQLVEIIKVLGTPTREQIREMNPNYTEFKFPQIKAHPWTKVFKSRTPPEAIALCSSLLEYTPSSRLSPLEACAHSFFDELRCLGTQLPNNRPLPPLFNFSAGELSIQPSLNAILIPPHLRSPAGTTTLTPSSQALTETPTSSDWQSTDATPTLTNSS
Sequence of Glycogen synthase kinase-3 beta (P49841 whole entry): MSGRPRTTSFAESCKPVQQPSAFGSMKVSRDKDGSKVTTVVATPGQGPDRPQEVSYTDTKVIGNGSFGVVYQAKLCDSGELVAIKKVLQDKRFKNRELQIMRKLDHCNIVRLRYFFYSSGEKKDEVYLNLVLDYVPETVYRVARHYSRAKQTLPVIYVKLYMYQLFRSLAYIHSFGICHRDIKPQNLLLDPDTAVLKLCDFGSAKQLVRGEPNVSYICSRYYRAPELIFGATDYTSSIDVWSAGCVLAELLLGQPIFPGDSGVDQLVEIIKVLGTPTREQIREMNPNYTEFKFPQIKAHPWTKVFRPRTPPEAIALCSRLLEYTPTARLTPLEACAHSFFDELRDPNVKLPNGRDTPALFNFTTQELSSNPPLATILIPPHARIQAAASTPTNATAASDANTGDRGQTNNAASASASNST

SMILES | pIC50 [1] | pIC50 [2]
CC[C@]1(c2cccc(S(=O)(=O)C(C)C)c2)C2=C(CC(C)(C)NC2=O)NC2N=NC(C(F)(F)F)=C21 (some centres undefined) [US20250313563, Compound 948419] | > 7.00 | > 7.00
CC[C@@]1(c2cccc(-c3ccnc(C)c3)c2)C2=C(CC(C)(C)NC2=O)NC2N=NC(C)=C21 (some centres undefined) [US20250313563, Compound 948420] | > 7.00 | 6.00 to 7.00
CC[C@@]1(c2cccc(-c3c(C)nn(C)c3C)c2)C2=C(CC(C)(C)NC2=O)NC2N=NC(C(F)(F)F)=C21 (some centres undefined) [US20250313563, Compound 948421] | > 7.00 | > 7.00
CC[C@@]1(c2cccc(S(C)(=O)=O)c2)C2=C(CC(C)(C)NC2=O)NC2N=NC(C(F)(F)F)=C21 (some centres undefined) [US20250313563, Compound 948422] | 6.00 to 7.00 | 6.00 to 7.00
CC[C@@]1(c2cccc(S(=O)(=O)C(C)C)c2)C2=C(CC(C)(C)NC2=O)NC2N=NC(C(F)(F)F)=C21 (some centres undefined) [US20250313563, Compound 948423] | > 7.00 | 6.00 to 7.00
CC(=O)N1C[C@]2(C[C@@]3(CO2)C2=C(N=NC2)NC2=C3C(=O)CC(C)(C)C2)[C@H]1C [US20250313563, Compound 948437] | > 7.00 | > 7.00
CC(=O)N1C[C@@]2(C[C@@]3(CO2)C2=C(N=NC2)NC2=C3C(=O)CC(C)(C)C2)[C@@H]1C [US20250313563, Compound 948438] | > 7.00 | > 7.00
CC(=O)N1C[C@]2(C[C@]3(CO2)C2=C(N=NC2)NC2=C3C(=O)CC(C)(C)C2)[C@H]1C [US20250313563, Compound 948439] | > 7.00 | > 7.00
CC(=O)N1C[C@@]2(C[C@]3(CO2)C2=C(N=NC2)NC2=C3C(=O)CC(C)(C)C2)[C@@H]1C [US20250313563, Compound 948440] | > 7.00 | > 7.00
CC[C@@]1(c2cccc(-c3ccncc3C)c2)C2=CN=NC2NC2=C1C(=O)NC1(CCC1)C2 (some centres undefined) [US20250313563, Compound 948512] | > 7.00 and 6.00 to 7.00 | > 7.00 and 5.30 to 6.00
CC[C@]1(c2cccc(-c3ccnc(C)c3)c2)C2=C(CC3(CCOCC3)NC2=O)NC2N=NC(C)=C21 (some centres undefined) [US20250313563, Compound 948513] | > 7.00 | 6.00 to 7.00
CC[C@@]1(c2cccc(-c3ccnc4ccc(Cl)cc34)c2)C2=CN=NC2NC2=C1C(=O)N(C)C(C)(C)C2 (some centres undefined) [US20250313563, Compound 948517] | > 7.00 | > 7.00
CC[C@]1(c2cccc(-c3ccnc4ccc(OC)cc34)c2)C2=CN=NC2NC2=C1C(=O)NC(C)(C)C2 (some centres undefined) [US20250313563, Compound 948518] | < 5.30 | < 5.30
CC[C@]1(c2cccc(C3=C4CC=C(F)C=C4N=CC3)c2)C2=CN=NC2NC2=C1C(=O)NC(C)(C)C2 (some centres undefined) [US20250313563, Compound 948519] | < 5.30 | < 5.30
CC[C@]1(c2cccc(-c3ccnc(OC)c3F)c2)C2=CN=NC2NC2=C1C(=O)NC(C)(C)C2 (some centres undefined) [US20250313563, Compound 948520] | 6.00 to 7.00 | 5.30 to 6.00
CC[C@@]1(c2cccc(-c3c(F)cncc3F)c2)C2=CN=NC2NC2=C1C(=O)NC(C)(C)C2 (some centres undefined) [US20250313563, Compound 948525] | > 7.00 and 6.00 to 7.00 | > 7.00 and 5.30 to 6.00
CC[C@@]1(c2cccc(-c3ccnn3C)c2)C2=CN=NC2NC2=C1C(=O)NC1(CCOCC1)C2 (some centres undefined) [US20250313563, Compound 948526] | 5.30 to 6.00 | < 5.30
CC[C@@]1(c2cccc(-c3ccnc4ccc(OC)cc34)c2)C2=CN=NC2NC2=C1C(=O)NC(C)(C)C2 (some centres undefined) [US20250313563, Compound 948527] | > 7.00 | > 7.00
CC[C@@]1(c2cccc(C3=C4CC=C(F)C=C4N=CC3)c2)C2=CN=NC2NC2=C1C(=O)NC(C)(C)C2 (some centres undefined) [US20250313563, Compound 948528] | > 7.00 | 6.00 to 7.00

SMILES | pIC50 [1] | pIC50 [2]
CC[C@@]1(c2cccc(-c3ccnn3C)c2)C2=CN=NC2NC2=C1C(=O)N[C@]1(CCCOC1)C2 (some centres undefined) [US20250313563, Compound 948529] | > 7.00 and 6.00 to 7.00 | 6.00 to 7.00 and 5.30 to 6.00
CC[C@]1(c2cccc(-c3ccnc4ccc(Cl)cc34)c2)C2=CN=NC2NC2=C1C(=O)NC(C)(C)C2 (some centres undefined) [US20250313563, Compound 948530] | 6.00 to 7.00 | 5.30 to 6.00
CC[C@@]1(c2cccc(-c3ccnc(OC)c3F)c2)C2=CN=NC2NC2=C1C(=O)NC(C)(C)C2 (some centres undefined) [US20250313563, Compound 948531] | 6.00 to 7.00 | < 5.30
CC[C@@]1(c2cccc(-c3c(F)cncc3OC)c2)C2=CN=NC2NC2=C1C(=O)CC(C)(C)[C@H]2F (some centres undefined) [US20250313563, Compound 948547] | 6.00 to 7.00 | 5.30 to 6.00
CC[C@]1(c2cccc(-c3c(F)cncc3OC)c2)C2=C(N=NC2)NC2=C1C(=O)N(Cc1ccccc1)C2 [US20250313563, Compound 948549] | > 7.00 and 6.00 to 7.00 | > 7.00 and 5.30 to 6.00
CC[C@@]1(c2cccc(-c3ccnc4c3CCCC4)c2)C2=C(N=NC2)NC2=C1C(=O)N(Cc1ccccc1)C2 [US20250313563, Compound 948552] | 6.00 to 7.00 | < 5.30
CCC1(c2cccc(C(F)(F)C(F)(F)F)c2)C2=CN=NC2NC2=C1C(=O)CC(C)(C)C2 (centres undefined) [US20250313563, Compound 948615] | > 7.00 | > 7.00
CCc1cnccc1-c1cccc([C@@]2(CC)C3=CN=NC3NC3=C2C(=O)NC(C)(C)C3)c1 (some centres undefined) [US20250313563, Compound 948639] | > 7.00 | 6.00 to 7.00
CC[C@]1(c2cccc(-c3ccncc3C)c2)C2=CN=NC2NC2=C1C(=O)N[C@]1(CCOC1)C2 (some centres undefined) [US20250313563, Compound 948640] | > 7.00 | > 7.00
CC[C@]1(c2cccc(-c3ccncc3C3CC3)c2)C2=CN=NC2NC2=C1C(=O)NC(C)(C)C2 (some centres undefined) [US20250313563, Compound 948642] | 6.00 to 7.00 | 5.30 to 6.00
CC[C@]1(c2cccc(-c3ccncc3OC3CC3)c2)C2=CN=NC2NC2=C1C(=O)NC(C)(C)C2 (some centres undefined) [US20250313563, Compound 948643] | < 5.30 | < 5.30
CC[C@@]1(c2cccc(-c3ccncc3C)c2)C2=CN=NC2NC2=C1C(=O)N[C@@]1(CCOC1)C2 (some centres undefined) [US20250313563, Compound 948644] | > 7.00 | > 7.00
CC[C@]1(c2cccc(-c3ccnc4cc(Cl)c(C)cc34)c2)C2=CN=NC2NC2=C1C(=O)NC(C)(C)C2 (some centres undefined) [US20250313563, Compound 948645] | 6.00 to 7.00 | < 5.30
CC[C@]1(c2cccc(-c3ccnc(N4CCCCC4)c3)c2)C2=CN=NC2NC2=C1C(=O)NC(C)(C)C2 (some centres undefined) [US20250313563, Compound 948646] | 5.30 to 6.00 | < 5.30
CC[C@]1(c2cccc(-c3cc(OC)nc4ccccc34)c2)C2=CN=NC2NC2=C1C(=O)NC(C)(C)C2 (some centres undefined) [US20250313563, Compound 948647] | < 5.30 | < 5.30
CC[C@]1(c2cccc(C3=C4CC=CC(Cl)=C4N=CC3)c2)C2=CN=NC2NC2=C1C(=O)NC(C)(C)C2 (some centres undefined) [US20250313563, Compound 948650] | < 5.30 | < 5.30
CC[C@@]1(c2cccc(-c3c4c(nn3C)CCCC4)c2)C2=CN=NC2NC2=C1C(=O)NC(C)(C)C2 (some centres undefined) [US20250313563, Compound 948652] | 6.00 to 7.00 | < 5.30
CC[C@]1(c2cccc(-c3c4c(cn3C)CCCC4)c2)C2=CN=NC2NC2=C1C(=O)NC(C)(C)C2 (some centres undefined) [US20250313563, Compound 948655] | > 7.00 | 6.00 to 7.00
